According to patent publication US9512120B2, “Microbicidally active imidazopyridine derivatives” (Syngenta Participations AG, priority 2013, dated 2016):

What was measured:
[1] = system: Puccinia recondita f. sp. Tritici; test: Puccinia recondita f. sp. tritici / wheat / leaf disc preventative (brown rust); format: in vivo; settings: foliar, wheat leaf segments cv Kanzler, inoculated 1 day after application, assessed 7-9 days after application, read-out: control of Puccinia recondita f. sp. Tritici (percent disease control compared to untreated)
Description: Puccinia recondita f. Sp. Tritici/Wheat/Leaf Disc Preventative (Brown Rust): Wheat leaf segments cultivated variety (cv) Kanzler were placed on agar in 24-well plates and sprayed with formulated test compound diluted in water at an application rate of 200 ppm. The leaf disks were inoculated with a spore suspension of the fungus 1 day after application. The inoculated leaf segments were incubated at 19° C. and 75% relative humidity under a light regime of 12/12 h (light/dark) in a climate cabinet and the activity of a compound was assessed as percent disease control compared to untreated when an appropriate level of disease damage appears in untreated check leaf segments (7-9 days after application).

[2] = system: Botryotinia fuckeliana (Botrytis cinerea); test: Botryotinia fuckeliana (Botrytis cinerea) / liquid culture (gray mould); format: cell-based; settings: Vogels broth, 24° C., 3-4 days after application, read-out: control of Botryotinia fuckeliana (inhibition of growth, photometric)
Description: Botryotinia Fuckeliana (Botrytis cinerea)/Liquid Culture (Gray Mould): Conidia of the fungus from cryogenic storage were directly mixed into nutrient broth (Vogels broth). After placing a DMSO solution of test compound into a 96-well microtiter plate at an application rate of 200 ppm, the nutrient broth containing the fungal spores was added. The test plates were incubated at 24° C. and the inhibition of growth was determined photometrically 3-4 days after application.

Gaeumannomyces graminis = Gaeumannomyces graminis / liquid culture (take-all of cereals); format: cell-based; settings: PDB, 24° C., 4-5 days after application, read-out: control of Gaeumannomyces graminis (inhibition of growth, photometric)
Description: Gaeumannomyces graminis/Liquid Culture (Take-all of Cereals): Mycelial fragments of the fungus from cryogenic storage were directly mixed into nutrient broth (PDB potato dextrose broth). After placing a DMSO solution of test compound into a 96-well microtiter plate at an application rate of 200 ppm, the nutrient broth […], containing the fungal spores is added. The test plates were incubated at 24° C. and the inhibition of growth was determined photometrically 4-5 days after application.

[3] = system: Mycosphaerella graminicola (Septoria tritici); test: Mycosphaerella graminicola (Septoria tritici) / liquid culture (Septoria blotch); format: cell-based; settings: Zymoseptoria tritici, PDB, 24° C., 4-5 days after application, read-out: control of Mycosphaerella graminicola (inhibition of growth, photometric)
Description: Mycosphaerella graminicola (Septoria tritici)/Liquid Culture (Septoria Blotch): Conidia of the fungus from cryogenic storage were directly mixed into nutrient broth (PDB potato dextrose broth). After placing a DMSO solution of test compound into a 96-well microtiter plate at an application rate of 200 ppm, the nutrient broth containing the fungal spores was added. The test plates were incubated at 24° C. and the inhibition of growth was determined photometrically 4-5 days after application.

Pyrenophora teres = Pyrenophora teres / barley / leaf disc preventative (net blotch); format: in vivo; settings: foliar, barley leaf segments cv Hasso, inoculated two days after application, assessed 5-7 days after application, read-out: control of Pyrenophora teres (disease control compared to untreated)
Description: Pyrenophora Teres/Barley/Leaf Disc Preventative (Net Blotch): Barley leaf segments cv Hasso are placed on agar in a 24-well plate and sprayed with formulated test compound diluted in water at an application rate of 200 ppm. The leaf segments are inoculated with a spore suspension of the fungus two days after application of the test solution. The inoculated leaf segments are incubated at 20° C. and 65% relative humidity under a light regime of 12/12 h (light/dark) in a climate cabinet and the activity of a compound is assessed as disease control compared to untreated when an appropriate level of disease damage appears in untreated check leaf segments (5-7 days after application).

[4] = system: Thanatephorus cucumeris (Rhizoctonia solani); test: Thanatephorus cucumeris (Rhizoctonia solani) / liquid culture (foot rot, damping-off); format: cell-based; settings: PDB, 24° C., 3-4 days after application, read-out: control of Thanatephorus cucumeris (inhibition of growth, photometric)
Description: Thanatephorus cucumeris (Rhizoctonia solani)/Liquid Culture (Foot Rot, Damping-Off): Mycelia fragments of a newly grown liquid culture of the fungus are directly mixed into nutrient broth (PDB potato dextrose broth). After placing a DMSO solution of the test compounds into a 96-well microtiter plate at an application rate of 200 ppm, the nutrient broth containing the fungal material was added. The test plates were incubated at 24° C. and the inhibition of growth was determined photometrically 3-4 days after application.

[5] = system: Monographella nivalis (Microdochium nivale); test: Monographella nivalis (Microdochium nivale) / liquid culture (foot rot cereals); format: cell-based; settings: PDB, 24° C., 4-5 days after application, read-out: control of Monographella nivalis (inhibition of growth, photometric)
Description: Monographella nivalis (Microdochium nivale)/Liquid Culture (Foot Rot Cereals): Conidia of the fungus from cryogenic storage were directly mixed into nutrient broth (PDB potato dextrose broth). After placing a DMSO solution of test compound into a 96-well microtiter plate at an application rate of 200 ppm, the nutrient broth containing the fungal spores was added. The test plates were incubated at 24° C. and the inhibition of growth was determined photometrically 4-5 days after application.

[6] = system: Glomerella lagenarium (Colletotrichum lagenarium); test: Glomerella lagenarium (Colletotrichum lagenarium) / liquid culture (anthracnose); format: cell-based; settings: Colletotrichum orbiculare, PDB, 24° C., 3-4 days after application, read-out: control of Glomerella lagenarium (inhibition of growth, photometric)
Description: Glomerella lagenarium (Colletotrichum lagenarium)/Liquid Culture (Anthracnose): Conidia of the fungus from cryogenic storage were directly mixed into nutrient broth (PDB potato dextrose broth). After placing a DMSO solution of test compound into a 96-well microtiter plate at an application rate of 200 ppm, the nutrient broth containing the fungal spores was added. The test plates were incubated at 24° C. and the inhibition of growth is measured photometrically 3-4 days after application.

[7] = system: Phaeosphaeria nodorum (Septoria nodorum); test: Phaeosphaeria nodorum (Septoria nodorum) / wheat / leaf disc preventative (glume blotch); format: in vivo; settings: Parastagonospora nodorum, foliar, wheat leaf segments cv Kanzler, inoculated 2 days after application, assessed 5-7 days after application, read-out: control of Phaeosphaeria nodorum (percent disease control compared to untreated)
Description: Phaeosphaeria nodorum (Septoria nodorum)/Wheat/Leaf Disc Preventative (Glume Blotch): Wheat leaf segments cv Kanzler were placed on agar in a 24-well plate and sprayed with formulated test compound diluted in water at an application rate of 200 ppm. The leaf disks are inoculated with a spore suspension of the fungus 2 days after application. The inoculated test leaf disks are incubated at 20° C. and 75% relative humidity under a light regime of 12/12 h (light/dark) in a climate cabinet and the activity of a compound is assessed as percent disease control compared to untreated when an appropriate level of disease damage appears in untreated check leaf disks (5-7 days after application).

CCn1c(-n2ncnc2N)nc2cncc(-c3ccc(OC)cc3OC)c21 [Compound 81, 2-[7-(2,4-dimethoxyphenyl)-1-ethylimidazo[4,5-c]pyridin-2-yl]-1,2,4-triazol-3-amine]
≥ 80%: pest or weed control at 200 ppm [1] | inhibition at 20 ppm [2] | inhibition at 20 ppm (Gaeumannomyces graminis) | inhibition at 20 ppm [3] | pest or weed control at 200 ppm (Pyrenophora teres) | inhibition at 20 ppm [4] | inhibition at 20 ppm [5]

C/C=C/CO/N=C(\C)c1cncc2nc(-n3ncnc3N)n(CC)c12 [Compound 177]
≥ 80%: inhibition at 20 ppm [2] | inhibition at 20 ppm [3] | inhibition at 20 ppm [4] | inhibition at 20 ppm [5]

N#Cc1cncc2nc(-n3ncnc3N)n(C3CCCCC3)c12 [Compound 131, 2-(5-amino-1,2,4-triazol-1-yl)-1-cyclohexylimidazo[4,5-c]pyridine-7-carbonitrile]
≥ 80%: inhibition at 20 ppm [6]

CCn1c(-n2ncnc2N)nc2cncc(/C(C)=N/OCC=C(C)C)c21 [Compound 157]
≥ 80%: pest or weed control at 200 ppm [1] | inhibition at 20 ppm [3] | pest or weed control at 200 ppm (Pyrenophora teres) | inhibition at 20 ppm [4] | inhibition at 20 ppm [6]

CCn1c(-n2ncnc2N)nc2cncc(-c3cccc(Cl)c3Cl)c21 [Compound 87, 2-[7-(2,3-dichlorophenyl)-1-ethylimidazo[4,5-c]pyridin-2-yl]-1,2,4-triazol-3-amine]
≥ 80%: pest or weed control at 200 ppm [1] | inhibition at 20 ppm [2] | inhibition at 20 ppm (Gaeumannomyces graminis) | inhibition at 20 ppm [3] | pest or weed control at 200 ppm (Pyrenophora teres) | inhibition at 20 ppm [4] | inhibition at 20 ppm [5]

CCn1c(-n2ncnc2N)nc2cncc(-c3cc(F)cc(F)c3)c21 [Compound 37, 2-[7-(3,5-difluorophenyl)-1-ethylimidazo[4,5-c]pyridin-2-yl]-1,2,4-triazol-3-amine]
≥ 80%: inhibition at 20 ppm [2] | inhibition at 20 ppm [3] | pest or weed control at 200 ppm (Pyrenophora teres) | inhibition at 20 ppm [4] | pest or weed control at 200 ppm [7] | inhibition at 20 ppm [6]

CCCn1c(-n2ncnc2N)nc2cncc(C#N)c21 [Compound 129, 2-(5-amino-1,2,4-triazol-1-yl)-1-propylimidazo[4,5-c]pyridine-7-carbonitrile]
≥ 80%: inhibition at 20 ppm [6]

CCCCCCO/N=C(\C)c1cncc2nc(-n3ncnc3N)n(CC)c12 [Compound 148]
≥ 80%: inhibition at 20 ppm [3] | pest or weed control at 200 ppm (Pyrenophora teres) | inhibition at 20 ppm [4] | inhibition at 20 ppm [6]

CCn1c(-n2ncnc2N)nc2cncc(-c3ccc(F)cc3OC)c21 [Compound 95, 2-[1-ethyl-7-(4-fluoro-2-methoxyphenyl)imidazo[4,5-c]pyridin-2-yl]-1,2,4-triazol-3-amine]
≥ 80%: pest or weed control at 200 ppm [1] | inhibition at 20 ppm (Gaeumannomyces graminis) | inhibition at 20 ppm [3] | inhibition at 20 ppm [4] | inhibition at 20 ppm [5]

CCCn1c(-n2ncnc2N)nc2cncc(-c3ccccc3F)c21 [Compound 121, 2-[7-(2-fluorophenyl)-1-propylimidazo[4,5-c]pyridin-2-yl]-1,2,4-triazol-3-amine]
≥ 80%: pest or weed control at 200 ppm [1] | inhibition at 20 ppm [2] | inhibition at 20 ppm (Gaeumannomyces graminis) | inhibition at 20 ppm [3] | pest or weed control at 200 ppm (Pyrenophora teres) | inhibition at 20 ppm [4] | pest or weed control at 200 ppm [7] | inhibition at 20 ppm [6]

CCCn1c(-n2ncnc2N)nc2cncc(/C(C)=N/OC/C=C/Cl)c21 [Compound 183]
≥ 80%: pest or weed control at 200 ppm [1] | inhibition at 20 ppm [2] | inhibition at 20 ppm (Gaeumannomyces graminis) | inhibition at 20 ppm [3] | pest or weed control at 200 ppm (Pyrenophora teres) | inhibition at 20 ppm [4] | inhibition at 20 ppm [5]

CCn1c(-n2ncnc2N)nc2cncc(-c3cccc(OC)c3OC)c21 [Compound 83, 2-[7-(2,3-dimethoxyphenyl)-1-ethylimidazo[4,5-c]pyridin-2-yl]-1,2,4-triazol-3-amine]
≥ 80%: pest or weed control at 200 ppm [1] | inhibition at 20 ppm [2] | inhibition at 20 ppm (Gaeumannomyces graminis) | inhibition at 20 ppm [3] | pest or weed control at 200 ppm (Pyrenophora teres) | inhibition at 20 ppm [4] | pest or weed control at 200 ppm [7]

CCCn1c(-n2ncnc2N)nc2cncc(/C(C)=N/OCC=C(C)C)c21 [Compound 189]
≥ 80%: pest or weed control at 200 ppm [1] | inhibition at 20 ppm [3] | inhibition at 20 ppm [4] | inhibition at 20 ppm [5]

CCCn1c(-n2ncnc2N)nc2cncc(/C(C)=N/OC/C=C(\C)Cl)c21 [Compound 185]
≥ 80%: inhibition at 20 ppm [2] | inhibition at 20 ppm [3] | pest or weed control at 200 ppm (Pyrenophora teres) | inhibition at 20 ppm [4] | inhibition at 20 ppm [5]

CCn1c(-n2ncnc2N)nc2cncc(-c3cccc(C)c3C)c21 [Compound 82, 2-[7-(2,3-dimethylphenyl)-1-ethylimidazo[4,5-c]pyridin-2-yl]-1,2,4-triazol-3-amine]
≥ 80%: pest or weed control at 200 ppm [1] | inhibition at 20 ppm [2] | inhibition at 20 ppm (Gaeumannomyces graminis) | inhibition at 20 ppm [3] | pest or weed control at 200 ppm (Pyrenophora teres) | inhibition at 20 ppm [4]
